These results are taken from US9845330B2, “6-nitro-2,3-dihydroimidazo[2,1-b]oxazoles and a process for the preparation thereof” (priority 2013, dated 2017).

The structures appear in SMILES notation. Converted amounts (≈) assume the structure as drawn.

Experiment [1] relates to M. tuberculosis MDR (resistant to isoniazid and rifampicin). Description: microbe, parasite or virus in culture. Type of experiment: cell-based. The note with it: Mycobacterium tuberculosis, 504 h, read-out: MIC M. tb MDR.
Experiment [2] relates to M. tuberculosis XDR (resistant to isoniazid, rifampicin, amikacin and moxifloxacin). Description: microbe, parasite or virus in culture. The note with it: Mycobacterium tuberculosis, 504 h, read-out: MIC M. tb XDR. Type of experiment: cell-based.

`C[C@]1(COc2cccc(-n3cc(COc4ccc(OC(F)(F)F)cc4)nn3)c2)Cn2cc([N+](=O)[O-])nc2O1` [IA33]: the MIC in experiment [1] and in experiment [2] was 0.12 µg/mL (≈ 0.225 µM) in each case.
As for `C[C@]1(COc2cccc(-n3cc(COc4ccc(F)cc4)nn3)c2)Cn2cc([N+](=O)[O-])nc2O1` [IA34], the MIC in experiment [1] and in experiment [2] was 0.12 µg/mL (≈ 0.257 µM) throughout.
For the compound `C[C@]1(COc2cccc(-n3cc(COc4ccc(C(F)(F)F)cc4)nn3)c2)Cn2cc([N+](=O)[O-])nc2O1` [IA35], the MIC in experiment [1] and in experiment [2] was 2 µg/mL (≈ 3.87 µM) throughout.
For `C[C@]1(COc2cccc(-n3cc(COc4ccccc4F)nn3)c2)Cn2cc([N+](=O)[O-])nc2O1` [IA36], the MIC in experiment [1] and in experiment [2] was 2 µg/mL (≈ 4.29 µM) throughout.
Consider `Cc1ccc(OCc2cn(-c3cccc(OC[C@@]4(C)Cn5cc([N+](=O)[O-])nc5O4)c3)nn2)cc1` [IA37], for which the MIC in experiment [1] and in experiment [2] was 4 µg/mL (≈ 8.65 µM) each time.
In the case of `CC(C)c1ccc(OCc2cn(-c3cccc(OC[C@@]4(C)Cn5cc([N+](=O)[O-])nc5O4)c3)nn2)cc1` [IA38], the MIC in experiment [1] and in experiment [2] was 4 µg/mL (≈ 8.15 µM) each time.
For `C[C@]1(COc2ccccc2-n2cc(COc3ccc(OC(F)(F)F)cc3)nn2)Cn2cc([N+](=O)[O-])nc2O1` [IA39], the MIC in experiment [1] and in experiment [2] was 1 µg/mL (≈ 1.88 µM) throughout.
`C[C@]1(COc2ccccc2-n2cc(COc3ccc(F)cc3)nn2)Cn2cc([N+](=O)[O-])nc2O1` [IA40]: the MIC in experiment [1] and in experiment [2] was 4 µg/mL (≈ 8.58 µM) each time.
With `C[C@]1(COc2ccccc2-n2cc(COc3ccc(C(F)(F)F)cc3)nn2)Cn2cc([N+](=O)[O-])nc2O1` [IA41], the MIC in experiment [1] and in experiment [2] was 2 µg/mL (≈ 3.87 µM) in each case.
On to `C[C@]1(COc2ccccc2-n2cc(COc3ccccc3F)nn2)Cn2cc([N+](=O)[O-])nc2O1` [IA42], for which the MIC in experiment [1] and in experiment [2] was 2 µg/mL (≈ 4.29 µM) each time.
With `C[C@]1(COc2ccc(-n3nnnc3-c3ccccc3)cc2)Cn2cc([N+](=O)[O-])nc2O1` [IB1, (R)-2-{4-[5-phenyl-1H-tetrazol-1-yl]phenoxymethyl}-2,3-dihydro-2-methyl-6-nitroimidazo[2,1-b]oxazole], the MIC in experiment [1] and in experiment [2] was 2 µg/mL (≈ 4.77 µM) in each case.
As to `C[C@]1(COc2ccc(-n3nnnc3-c3ccc(OC(F)(F)F)cc3)cc2)Cn2cc([N+](=O)[O-])nc2O1` [IB2, (R)-2-{4-[5-(4-trifluoromethoxyphenyl)-1H-tetrazol-1-yl]phenoxymethyl}-2,3-dihydro-2-methyl-6-nitroimidazo[2,1-b]oxazole], the MIC in experiment [1] and in experiment [2] was 2 µg/mL (≈ 3.97 µM) in each case.
Take `Cc1ccc(-c2nnnn2-c2ccc(OC[C@@]3(C)Cn4cc([N+](=O)[O-])nc4O3)cc2)cc1` [IB3, (R)-2-{4-[5-(4-methylphenyl)-1H-tetrazol-1-yl]phenoxymethyl}-2,3-dihydro-2-methyl-6-nitroimidazo[2,1-b]oxazole]: the MIC in experiment [1] and in experiment [2] was 4 µg/mL (≈ 9.23 µM) each time.
As for `C[C@]1(COc2ccc(-n3nnnc3-c3ccc(F)cc3)cc2)Cn2cc([N+](=O)[O-])nc2O1` [IB4, (R)-2-{4-[5-(4-fluorophenyl)-1H-tetrazol-1-yl]phenoxymethyl}-2,3-dihydro-2-methyl-6-nitroimidazo[2,1-b]oxazole], the MIC in experiment [1] and in experiment [2] was 4 µg/mL (≈ 9.15 µM) each time.
Regarding `C[C@]1(COc2ccc(-n3nnnc3-c3ccc(C(F)(F)F)cc3)cc2)Cn2cc([N+](=O)[O-])nc2O1` [IB5, (R)-2-{4-[5-(4-trifluoromethylphenyl)-1H-tetrazol-1-yl]phenoxymethyl}-2,3-dihydro-2-methyl-6-nitroimidazo[2,1-b]oxazole], the MIC in experiment [1] and in experiment [2] was 1 µg/mL (≈ 2.05 µM) in each case.
Take `CCc1ccc(-c2nnnn2-c2ccc(OC[C@@]3(C)Cn4cc([N+](=O)[O-])nc4O3)cc2)cc1` [IB6, (R)-2-{4-[5-(4-ethylphenyl)-1H-tetrazol-1-yl]phenoxymethyl}-2,3-dihydro-2-methyl-6-nitroimidazo[2,1-b]oxazole]: the MIC in experiment [1] and in experiment [2] was 2 µg/mL (≈ 4.47 µM) throughout.
`C[C@]1(COc2ccc(-n3nnnc3Oc3ccc(F)cc3)cc2)Cn2cc([N+](=O)[O-])nc2O1` [IB7, (R)-2-{4-[5-(4-fluorophenoxy)-1H-tetrazol-1-yl]phenoxymethyl}-2,3-dihydro-2-methyl-6-nitroimidazo[2,1-b]oxazole]: the MIC in experiment [1] and in experiment [2] was 2 µg/mL (≈ 4.41 µM) each time.
For `C[C@]1(COc2ccc(-n3nnnc3Oc3ccc(C(F)(F)F)cc3)cc2)Cn2cc([N+](=O)[O-])nc2O1` [IB8, (R)-2-{4-[5-(4-trifluoromethylphenoxy)-1H-tetrazol-1-yl]phenoxymethyl}-2,3-dihydro-2-methyl-6-nitroimidazo[2,1-b]oxazole], the MIC in experiment [1] and in experiment [2] was 4 µg/mL (≈ 7.95 µM) throughout.
`Cc1ccc(Oc2nnnn2-c2ccc(OC[C@@]3(C)Cn4cc([N+](=O)[O-])nc4O3)cc2)cc1` [IB9, (R)-2-{4-[5-(4-methylphenoxy)-1H-tetrazol-1-yl]phenoxymethyl}-2,3-dihydro-2-methyl-6-nitroimidazo[2,1-b]oxazole]: the MIC in experiment [1] and in experiment [2] was 4 µg/mL (≈ 8.9 µM) in each case.
For the compound `C[C@]1(COc2ccc(-n3nnnc3Oc3ccc(OC(F)(F)F)cc3)cc2)Cn2cc([N+](=O)[O-])nc2O1` [IB10, (R)-2-{4-[5-(4-trifluoromethoxyphenoxy)-1H-tetrazol-1-yl]phenoxymethyl}-2,3-dihydro-2-methyl-6-nitroimidazo[2,1-b]oxazole], the MIC in experiment [1] and in experiment [2] was 1 µg/mL (≈ 1.93 µM) throughout.
For the compound `C[C@]1(COc2ccc(-c3cc(-c4ccccc4)on3)cc2)Cn2cc([N+](=O)[O-])nc2O1` [IC1, (R)-2-{4-[5-phenylisoxazol-3-yl]phenoxymethyl}-2,3-dihydro-2-methyl-6-nitroimidazo[2,1-b]oxazole], the MIC in experiment [1] and in experiment [2] was 0.12 µg/mL (≈ 0.287 µM) throughout.
For the compound `CCc1ccc(-c2cc(-c3ccc(OC[C@@]4(C)Cn5cc([N+](=O)[O-])nc5O4)cc3)no2)cc1` [IC2, (R)-2-{4-[5-(4-ethylphenyl)isoxazol-3-yl]phenoxymethyl}-2,3-dihydro-2-methyl-6-nitroimidazo[2,1-b]oxazole], the MIC in experiment [1] and in experiment [2] was 2 µg/mL (≈ 4.48 µM) each time.
In the case of `C[C@]1(COc2ccc(-c3cc(-c4ccc(F)cc4F)on3)cc2)Cn2cc([N+](=O)[O-])nc2O1` [IC3, (R)-2-{4-[5-(2,4-difluorophenyl)isoxazol-3-yl]phenoxymethyl}-2,3-dihydro-2-methyl-6-nitroimidazo[2,1-b]oxazole], the MIC in experiment [1] and in experiment [2] was 0.25 µg/mL (≈ 0.55 µM) throughout.
Consider `C[C@]1(COc2ccc(-c3cc(-c4ccccc4F)on3)cc2)Cn2cc([N+](=O)[O-])nc2O1` [IC4, (R)-2-{4-[5-(2-fluorophenyl)isoxazol-3-yl]phenoxymethyl}-2,3-dihydro-2-methyl-6-nitroimidazo[2,1-b]oxazole], for which the MIC in experiment [1] and in experiment [2] was 2 µg/mL (≈ 4.58 µM) each time.
As for `C[C@]1(COc2ccc(-c3cc(-c4ccc(C(F)(F)F)cc4)on3)cc2)Cn2cc([N+](=O)[O-])nc2O1` [IC5, (R)-2-{4-[5-(4-trifluoromethylphenyl)isoxazol-3-yl]phenoxymethyl}-2,3-dihydro-2-methyl-6-nitroimidazo[2,1-b]oxazole], the MIC in experiment [1] and in experiment [2] was 1 µg/mL (≈ 2.06 µM) each time.
Regarding `Cc1ccc(-c2cc(-c3ccc(OC[C@@]4(C)Cn5cc([N+](=O)[O-])nc5O4)cc3)no2)cc1` [IC6, (R)-2-{4-[5-(4-methylphenyl)isoxazol-3-yl]phenoxymethyl}-2,3-dihydro-2-methyl-6-nitroimidazo[2,1-b]oxazole], the MIC in experiment [1] and in experiment [2] was 1 µg/mL (≈ 2.31 µM) each time.
In the case of `COc1ccc(-c2cc(-c3ccc(OC[C@@]4(C)Cn5cc([N+](=O)[O-])nc5O4)cc3)no2)cc1` [IC7, (R)-2-{4-[5-(4-methoxyphenyl)isoxazol-3-yl]phenoxymethyl}-2,3-dihydro-2-methyl-6-nitroimidazo[2,1-b]oxazole], the MIC in experiment [1] and in experiment [2] was 1 µg/mL (≈ 2.23 µM) each time.
On to `C[C@]1(COc2ccc(-c3cc(-c4cccc(F)c4)on3)cc2)Cn2cc([N+](=O)[O-])nc2O1` [IC8, (R)-2-{4-[5-(3-fluorophenyl)isoxazol-3-yl]phenoxymethyl}-2,3-dihydro-2-methyl-6-nitroimidazo[2,1-b]oxazole], for which the MIC in experiment [1] and in experiment [2] was 2 µg/mL (≈ 4.58 µM) each time.
On to `C[C@]1(COc2ccc(-c3cc(-c4ccccn4)on3)cc2)Cn2cc([N+](=O)[O-])nc2O1` [IC9, (R)-2-{4-[5-(pyridin-2-yl)isoxazol-3-yl]phenoxymethyl}-2,3-dihydro-2-methyl-6-nitroimidazo[2,1-b]oxazole], for which the MIC in experiment [1] and in experiment [2] was 2 µg/mL (≈ 4.77 µM) throughout.
For the compound `C[C@]1(COc2ccc(-c3cc(-c4ccc(OC(F)(F)F)cc4)on3)cc2)Cn2cc([N+](=O)[O-])nc2O1` [IC10, (R)-2-{4-[5-(4-trifluoromethoxyphenyl)isoxazol-3-yl]phenoxymethyl}-2,3-dihydro-2-methyl-6-nitroimidazo[2,1-b]oxazole], the MIC in experiment [1] and in experiment [2] was 0.5 µg/mL (≈ 0.995 µM) each time.
With `CCCCCc1cc(-c2ccc(OC[C@@]3(C)Cn4cc([N+](=O)[O-])nc4O3)cc2)no1` [IC11, (R)-2-{4-[5-pentylisoxazol-3-yl]phenoxymethyl}-2,3-dihydro-2-methyl-6-nitroimidazo[2,1-b]oxazole], the MIC in experiment [1] and in experiment [2] was 32 µg/mL (≈ 77.6 µM) in each case.
For `CCCCCCCc1cc(-c2ccc(OC[C@@]3(C)Cn4cc([N+](=O)[O-])nc4O3)cc2)no1` [IC12, (R)-2-{4-[5-heptylisoxazol-3-yl]phenoxymethyl}-2,3-dihydro-2-methyl-6-nitroimidazo[2,1-b]oxazole], the MIC in experiment [1] and in experiment [2] was 2 µg/mL (≈ 4.54 µM) in each case.
On to `C[C@]1(COc2ccc(-c3cc(COc4ccc(OC(F)(F)F)cc4)on3)cc2)Cn2cc([N+](=O)[O-])nc2O1` [IC13, (R)-2-{4-[5-(4-trifluoromethoxyphenoxymethyl)isoxazol-3-yl]phenoxymethyl}-2,3-dihydro-2-methyl-6-nitroimidazo[2,1-b]oxazole], for which the MIC in experiment [1] and in experiment [2] was 0.12 µg/mL (≈ 0.225 µM) in each case.
